Experiments:
Format in all cases: cell-based
[1] = system: Human lymphoma jurkat cells; test: Killing of cultured Jurkats with and without anti-Fas (propidium iodide, Facs); details: 19 hours
Method: Jurkats are a T-cell derived lymphoma cell line which expresses both FAS receptor and Fas-L. These cells, however, are only mildly sensitive to Fas-L/anti-Fas induced apoptosis. Select compounds were tested for their ability to kill jurkats. Additionally, we investigated the ability of select compounds to sensitize jurkats to anti-Fas mediated apoptosis.
Human lymphoma jurkat cells were cultured in suspension in 24 well plates. Jurkat cell were treated with test compounds either alone or in the presence of suboptimal doses of anti-Fas antibody. […] Cells were incubated with propidium iodide and the percentage of cells that incorporated the stain was counted by Facs.

[2] = system: Human prostate DU145 cells; test: Killing of DU145 prostate cancer cells (Alamar Blue, 7 day treatment)
Method: Prostate cancer is often resistant to traditional chemotherapies. DU145 is representative prostated cancer cell line. DU145 cells were cultured in the presence of various concentrations of compound 136. Compound 136 kills 100% of the cells at 10 μM, with an IC50 of approximately 7 μM.
Human prostate DU145 cells were cultured in 96 well dishes. Cells were treated with various concentrations of test compounds for 7 days. Media was then removed and replaced with fresh media containing Alamar Blue. The cells were incubated for a further 4 hours and Alamar blue and conversion was assessed by fluorescence. Compound effectiveness was determined by assessing the reduction in Alamar blue bioconversion following 7 day treatment.

Human lung H460 cells = test: Killing of H460 cells (Alamar Blue, 24 hour treatment)
Method: H460 is representative of a […] cancer cell line.
Human lung H460 cells (7000 cells/well) were cultured in 96 well dishes. Cells were treated with various concentrations of test compounds for 24 hours. Media was then removed and replaced with fresh media containing Alamar Blue. The cells were incubated for a further 4 hours and Alamar blue and conversion was assessed by fluorescence. Compound effectiveness was determined by assessing the reduction in Alamar blue bioconversion following 24 hour treatment.

[3] = Dose 3, with anti-Fas (5 ng/mL)
[4] = Dose 10, with anti-Fas (5 ng/mL)
[5] = Dose 0.3, with anti-Fas (5 ng/mL)
[6] = Dose 1, with anti-Fas (5 ng/mL)
[7] = Dose 30, with anti-Fas (5 ng/mL)

N=C(N)SCCCn1c2ccccc2c2c3c(n4c5ccccc5cc4c21)C(=O)NC3=O [Example 145]
Survival % Without Anti-Fas ([1]; Dose 3 (μM)): 93% | Survival % With Anti-Fas [1, 3]: 35% | Survival % Without Anti-Fas ([1]; Dose 10 (μM)): 11%

N=C(N)SCCCn1cc(C2=C(n3ccc4ccccc43)C(=O)NC2=O)c2cc(OCc3ccccc3)ccc21 [Example 148, 3-(3-((amidiothio)propyl)-5-benzyloxyindol-3-yl)-4-(indol-1-yl)-pyrrole-2,5-dione]
Survival % Without Anti-Fas ([1]; Dose 3 (μM)): >90% | Survival % Without Anti-Fas ([1]; Dose 10 (μM)): 0% | Survival % With Anti-Fas [1, 4]: 20%

Cc1cn(C2=C(c3cn(CCCSC(=N)N)c4ccccc34)C(=O)NC2=O)c2ccccc12 [Example 146, 3-(3-((amidiothio)propyl)indol-3-yl)-4-(3-methylindol-1-yl)-pyrrole-2,5-dione]
Survival % Without Anti-Fas ([1]; Dose 3 (μM)): >90% | Survival % With Anti-Fas [1, 3]: 20% | Survival % Without Anti-Fas ([1]; Dose 10 (μM)): 0%

N=C(N)SCCCn1cc(C2=C(n3ccc4cc(OCc5ccccc5)ccc43)C(=O)NC2=O)c2ccccc21 [Example 147, 3-(3-((amidiothio)propyl)indol-3-yl)-4-(5-benzyloxyindol-1-yl)-pyrrole-2,5-dione]
Survival % Without Anti-Fas ([1]; Dose 3 (μM)): >90% | Survival % With Anti-Fas [1, 3]: 20% | Survival % Without Anti-Fas ([1]; Dose 10 (μM)): 0%

CN(C)CCCn1cc(C2=C(n3ccc4ccccc43)C(=O)NC2=O)c2cc(OCc3ccccc3)ccc21 [Example 136, 3-(5-benzyloxy-1-(3-dimethylaminopropyl)indol-3-yl)-4-(indol-1-yl)-pyrrole-2,5-dione]
cells killed ([2]; 10 μM): 100% | IC50 ([2]; Homo sapiens, DU-145, 168 h, 7 days of treatment): ~7 µM

3-(3-(amidinothio)propyl)indol-1-yl)-4-(5-benzyloxy-1-methylindol-3-yl)-4-pyrrole-2,5-dione [Example 168]
Survival % Without Anti-Fas ([1]; Dose 0.3 (μM)): 91% | Survival % With Anti-Fas [1, 5]: 49% | Survival % Without Anti-Fas ([1]; Dose 1 (μM)): 89% | Survival % With Anti-Fas [1, 6]: 49% | Survival % Without Anti-Fas ([1]; Dose 3 (μM)): 46% | Survival % With Anti-Fas [1, 3]: 1% | Survival % Without Anti-Fas ([1]; Dose 10 (μM)): 1% | Survival % With Anti-Fas [1, 4]: 0% | Survival % Without Anti-Fas ([1]; Dose 30 (μM)): 0% | Survival % With Anti-Fas [1, 7]: 0%

Cc1cc2ccccc2n1C1=C(c2cn(CCCSC(=N)N)c3ccc(OCc4ccccc4)cc23)C(=O)NC1=O [Example 150, 3-(3-((amidiothio)propyl)-5-benzyloxyindol-3-yl)-4-(2-methylindol-1-yl)-pyrrole-2,5-dione]
Survival % Without Anti-Fas ([1]; Dose 3 (μM)): >90% | Survival % With Anti-Fas [1, 3]: 5% | Survival % Without Anti-Fas ([1]; Dose 10 (μM)): 0%

Cn1cc(C2=C(n3cc(CCCSC(=N)N)c4ccccc43)C(=O)NC2=O)c2ccccc21 [Example 167]
IC50 (Human lung H460 cells): ~3 µM | Survival % Without Anti-Fas ([1]; Dose 0.3 (μM)): 98% | Survival % With Anti-Fas [1, 5]: 43% | Survival % Without Anti-Fas ([1]; Dose 1 (μM)): 88% | Survival % With Anti-Fas [1, 6]: 17% | Survival % Without Anti-Fas ([1]; Dose 3 (μM)): 50% | Survival % With Anti-Fas [1, 3]: 5% | Survival % Without Anti-Fas ([1]; Dose 10 (μM)): 0% | Survival % With Anti-Fas [1, 4]: 0% | Survival % Without Anti-Fas ([1]; Dose 30 (μM)): 0% | Survival % With Anti-Fas [1, 7]: 0%

N=C(N)SCCCn1cc(C2=C(N3CCc4ccccc43)C(=O)NC2=O)c2ccccc21 [Example 159, 3-(3-((amidiothio)propyl)indol-3-yl)-4-(indolin-1-yl)-pyrrole-2,5-dione]
Survival % Without Anti-Fas ([1]; Dose 3 (μM)): >90% | Survival % With Anti-Fas [1, 3]: 10% | Survival % Without Anti-Fas ([1]; Dose 10 (μM)): 17%

Cc1cn(C2=C(c3cn(CCCSC(=N)N)c4ccc(OCc5ccccc5)cc34)C(=O)NC2=O)c2ccccc12 [Example 149, 3-(3-((amidiothio)propyl)-5-benzyloxyindol-3-yl)-4-(3-methylindol-1-yl)-pyrrole-2,5-dione]
Survival % Without Anti-Fas ([1]; Dose 3 (μM)): >90% | Survival % With Anti-Fas [1, 3]: 2% | Survival % Without Anti-Fas ([1]; Dose 10 (μM)): 0%

Reference: patent US20060199835A1, “Neuroprotective and anti-proliferative compounds” (priority 2004, published 2006)
